Values of other authors in patent US20050121026A1, “Method for administration of tiotropium” (priority 2003, published 2005).

Details: bronchodilator, background statement

C[N+]1(C)[C@@H]2C[C@@H](OC(=O)C(O)(c3cccs3)c3cccs3)C[C@H]1[C@@H]1O[C@@H]12 [tiotropium bromide]
Duration of action (may be active for up to): up to 24 hours
